Here are results for 1 compound from patent US6162610A, “Xanthan-ester and acridan substrates for horseradish peroxidase” (Tropix, Inc., priority 1998, dated 2000).

For assay [1], the target named is T1, HRP (Armoracia rusticana, UniProt P00433).
T1 sequence (P00433 31-338 limits assumed): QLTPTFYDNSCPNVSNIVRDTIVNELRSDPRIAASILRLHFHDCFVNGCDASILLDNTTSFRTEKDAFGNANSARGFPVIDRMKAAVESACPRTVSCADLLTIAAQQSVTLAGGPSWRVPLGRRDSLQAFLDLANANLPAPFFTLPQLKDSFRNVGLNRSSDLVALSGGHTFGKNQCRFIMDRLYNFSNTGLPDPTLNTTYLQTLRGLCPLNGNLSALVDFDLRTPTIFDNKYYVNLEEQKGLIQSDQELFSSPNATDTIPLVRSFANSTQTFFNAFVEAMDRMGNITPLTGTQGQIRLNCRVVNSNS
Description: Effect of detergents and polymers on chemiluminescent signal from xanthene substrate with HRP. It is filed as biochemical, horseradish. The conditions noted are these: 5 fmol HRP; for Signal + HRP: 19 min incubation. The protocol: (§1) Detergent was added to the buffer solution to increase the solubility of the assay components. The use of polymeric quaternary amines, neutral detergents and cationic detergents was compared using polyvinylbenzyltributylammonium chloride (Sapphire II, Tropix), Tween-20 (Sigma) and […] (CTAB, Sigma). Luminescence was measured in white opaque microplate wells using a Dynatech ML3000 luminometer. First, background signal was measured after the addition of hydrogen peroxide (10 μL of 3.5 mM stock solution) to 0.12 mL of 1.17 mM xanthene substrate (14) in 0.1 M citrate buffer pH 7.0 containing, 0.42 mg/mL hydroxypropylmethylcellulose and 4-iodophenol (iodophenol concentration was 71.4 μg/mL for the Sapphire II and Tween-20 solutions and 178.6 μg/mL for the CTAB solution) after a 19 minute incubation. HRP, 10 μL containing 5 fmol, was added to each well and the chemiluminescence was measured after a 19 min incubation.

For assay [2], the system named is HRP. Described as above. The format is biochemical, horseradish. The conditions noted are these: H2O2, no HRP, 19 minute incubation, citrate buffer pH 7.0. The protocol:
as §1

The target in assay [3] is T2, horseradish peroxidase (HRP, Type VIA) (Armoracia rusticana, UniProt P00433).
T2 sequence (P00433 31-338 limits assumed): T1 sequence (P00433 31-338 limits assumed)
The assay is described as follows: Comparison of Xanthene substrate (14) and Enhanced Chemiluminescence (ECL), HRP dilution series. It is filed as biochemical. To be noted: for RLU: Xanthene substrate with 4-phenylphenol, Emerald II, read after 40 minutes; for S/N: Xanthene substrate, 40 minutes. The protocol: The following conditions were used for the comparison of ECL(a commercially available optimized reagent containing Luminol-an amino-substituted cyclic acylhydrazide) and Xanthene substrate (14). ECL reagents were obtained from Amersham and were used as recommended by the manufacturer. Aliquots of horseradish peroxidase (HRP, Type VIA), 10 μL, containing 0,0.5, 5.0, 50.0, 500.0 and 5000.0 attomoles HRP were then added to 0.13 mL of each reagent formulation. To evaluate Xanthene substrate, hydrogen peroxide (10 μL of a 3.5 mM stock) was added to 10 μL of each HRP dilution and the reaction was initiated by addition of a solution of 0.12 mL of 1.17 mM Xanthene substrate in 0.1 M citrate buffer pH 7.0 containing 1.22 mM 4-phenylphenol, 0.42 mg/mL hydroxypropylmethylcellulose and 0.167 mg/mL Emerald II. The chemiluminescent signal was measured in a Dynatech ML3000 luminometer after 1 minute for ECL and 40 minutes for Xanthene substrate.

[4] abbreviates: Tween-20, 4-iodophenol 71.4 μg/mL.

Turning to `O=C(Oc1ccccc1)C1c2ccccc2Oc2cc(O)ccc21` (stereo not shown) [compound 14, 3-Hydroxy-9H-9-xanthene-carboxylic acid, phenyl ester], the S/N is on record as 1.5 on HRP [1] (CTAB); 15.4 on HRP [1] (Sapphire II); 1.8 at HRP [1] (Tween-20); 1.11 in assay [3] (HRP 0.5 amol); 1.37 in assay [3] (HRP 5 amol); 4.95 in assay [3] (HRP 50 amol). Moreover, the figures for the S/N in assay [3] (HRP 500 amol) and in assay [3] (HRP 5000 amol) were 27.70 and 58.06, respectively. Besides, the “Signal + HRP” value is 3.78 at HRP [1] (CTAB, 4-iodophenol 178.6 μg/mL); 229.05 on HRP [1] (Sapphire II, 4-iodophenol 71.4 μg/mL); 0.0439 at HRP [1] (setting [4]). The Background with HRP [2] (CTAB, 4-iodophenol 178.6 μg/mL) was found to be 2.45; with HRP [2] (Sapphire II (polyvinylbenzyltributylammonium chloride), 4-iodophenol 71.4 μg/mL) it was 14.83; in the assay on HRP [2] (setting [4]) it was 0.0242. The RLU amounted to 14.12 RLU in assay [3] (HRP 0.5 amol); 17.52 RLU in assay [3] (HRP 5 amol); 63.12 RLU in assay [3] (HRP 50 amol); 353.31 RLU in assay [3] (HRP 500 amol); 740.51 RLU in assay [3] (HRP 5000 amol).
